Converted amounts (≈) assume the structure as drawn. Read-outs that look alike come from different tables or passages of the source.
Assays:
[1] = Solubility measurements in injection media (excess powder, HPLC); type: physicochemical; conditions: for solubility at 72 h: thermodynamic from solid; for aqueous solubility as times that of the parent drug (PTX): relative to PTX 0.4 μg/mL
Method: The flow rate was 1 mL/min, with the mobile phase starting at 50% acetonitrile and 50% water and transitioning to 60% acetonitrile and 40% water at 13 min, then returning to 50% acetonitrile and 50% water at 25 min. Chromatographic peaks of the three compounds were identified based on their retention times and chromatographic responses. Peak area measurements were utilized to regress calibration curves to determine each compound.
The test system was shaken at 25 °C for 72 h, then centrifugated at 10,000 rpm for 10 min. Each supernate was collected and 0.22 μm filtered off, then determined by HPLC.

[2] = test system: normal breast cells Hs578Bst; test: MTT cytotoxicity assay; type: cell-based
Method: (§1) In vitro anti-cancer effects against cancer cells and safety to normal cells of the prodrugs were evaluated by cytotoxicity.
(§2) MDA-MB-231 cells were seeded in a 96-well transparent plate, at a density of 5000 cells/well. […] After 72 h incubation, the plates were washed with HBSS and MTT solution was added. The final concentration of MTT in each well was 0.5 mg/mL. Then 4 h later, the solution on the plate was removed and the content was dissolved with DMSO [33].The absorption was measured at 490 nm and cell viability was calculated, cell viability% = OD of treated cells/OD of untreated cells × 100% [51].

[3] = test system: breast cancer cells MDA-MB-231; test: MTT cytotoxicity assay; type: cell-based; conditions: Homo sapiens
Method: as §1, §2

[4] = test system: ovarian cancer cells A2780; test: MTT cytotoxicity assay; type: cell-based; conditions: Homo sapiens
[5] = cited from earlier work
[6] = test system: MDA-MB-231 cells; test: Annexin V-FITC/PI apoptosis assay (flow cytometry); type: cell-based; conditions: MDA-MB-231, 1 μM, 24 h
Method: Cell apoptosis was tested by an Annexin V-FITC/PI staining assay and analyzed by flow cytometry, the result is illustrated in Figure 6. According to Figure 6a, the four regions represent different cell stages. Q1 represents necrotic cells ([…]), Q2 and Q3 represent late apoptotic cells (Annexin V+/PI+) and early apoptotic cells (Annexin V+/PI–), and Q4 represents normal cells (Annexin V–/PI–).
MDA-MB-231 cells were seeded in a 6-well transparent plate, at a density of 5 × 10^5 cells/well. […] After 24 h incubation, the cells were harvested by trypsin, washed with HBSS, and 1 mL of binding buffer (containing Annexin V-FITC and PI) was added, final concentration of Annexin V-FITC and PI were both 1 μg/mL [52]. After that, the test system was incubated in the dark for 10 min, then analysis was immediately conducted by flow cytometry. The fluorescence intensity of Annexin V-FITC was measured at an excitation/emission wavelength of 488/530 nm, the fluorescence intensity of PI was measured at an excitation/emission wavelength of 488/617 nm. Each assay was repeated in triplicate.

[7] = Solubility of SG-PTX in various formulations (surfactant solutions); type: physicochemical; conditions: for solubility at 72 h: 25 °C, aqueous with cosolvent or surfactant or cyclodextrin, thermodynamic from solid, no ethanol, read-out: solubility in formulation
Method: Solubility of SG-PTX in various formulations was tested, SG-PTX was added into formulations with different proportion (v/v) of water and surfactants. These solubility tests were carried out according to the same protocol as aqueous solubility assays.
Solutions of different surfactants (Cremophor EL, Tween-80, and PEG-400) were prepared at different concentrations of 2.5%, 5%, 10%, and 15% (v/v). Excess powder of SG-PTX was added into different formulations, respectively. The test system was shaken at 25 °C for 72 h, then centrifugation at 10,000 rpm for 10 min. Each supernate was collected and 0.22 μm filtered off, then determined by HPLC.

[8] = Solubility of SG-PTX at various pH conditions; type: physicochemical
Method: An aqueous solution of different pH was adjusted by HCl or NaOH, Excess powder of SG-PTX was added to solutions of different pH, respectively. The test system was shaken at 25 °C for 72 h, then centrifugation at 10,000 rpm for 10 min. Each supernate was collected and 0.22 μm filtered off, then determined by HPLC.

[9] = Log P by miniaturized shake flask method (n-octanol/water); type: physicochemical; conditions: shaken 24 h, mean ± SD, n = 4
Method: Log P and was determined by a miniaturized shake flask method. Briefly, the organic phase consisted of n-octanol saturated with water. Respectively, the aqueous phase consisted of water saturated with n-octanol.

[10] = 25 °C, saline or isotonic, 5% glucose solution, 25 °C, shaken 72 h, mean ± SD, n = 4, read-out: Solubility, 5% Glucose
[11] = 25 °C, saline or isotonic, saline, 25 °C, shaken 72 h, mean ± SD, n = 4, read-out: Solubility, Saline
[12] = 25 °C, water, pure water, 25 °C, shaken 72 h, mean ± SD, n = 4, read-out: Solubility, Pure Water

| Compound | total percentage of apoptotic cells (late apoptosis + early apoptosis) [6] [%] | solubility at 72 h [1, 10] [µg/mL] | solubility at 72 h [1, 11] [µg/mL] | solubility at 72 h [1, 12] [µg/mL] | aqueous solubility as times that of the parent drug (PTX) [1] [times] | IC50 ([2]; Hs578Bst, 72 h) [nM] | IC50 ([3]; MDA-MB-231, 72 h) [nM] | IC50 ([4]; A2780, 72 h) [nM] | logP at 24 h [9] | also measured |
| --- | --- | --- | --- | --- | --- | --- | --- | --- | --- | --- |
| CC(=O)O[C@H]1C(=O)[C@@]2(C)[C@H]([C@H](OC(=O)c3ccccc3)[C@]3(O)C[C@H](OC(=O)[C@H](O)[C@@H](NC(=O)c4ccccc4)c4ccccc4)C(C)=C1C3(C)C)[C@]1(OC(C)=O)CO[C@@H]1C[C@@H]2O [PTX, Paclitaxel, reference compound] | 37.5 | – | – | – | – | – | – | – | – | solubility at 72 h ([1]; 5% glucose solution, 25 °C, saline or isotonic, 5% glucose solution, 25 °C, shaken 72 h, mean ± SD, n = 4, read-out: Solubility, 5% Glucose): < 1 µg/mL; solubility at 72 h ([1]; pure water, 25 °C, water, pure water, 25 °C, shaken 72 h, mean ± SD, n = 4, read-out: Solubility, Pure Water): < 1 µg/mL; solubility at 72 h ([1]; saline, 25 °C, saline or isotonic, saline, 25 °C, shaken 72 h, mean ± SD, n = 4, read-out: Solubility, Saline): < 1 µg/mL; IC50 ([2]; Hs578Bst normal breast cells, 72 h incubation, MTT, read-out: IC50): 632 nM; IC50 ([3]; MDA-MB-231, 72 h incubation, MTT, read-out: IC50): 30.5 nM; IC50 ([4]; A2780, 72 h incubation, MTT, read-out: IC50): 194 nM; Log P [5]: 3.97 [27] |
| CC(=O)O[C@H]1C(=O)[C@@]2(C)[C@H]([C@H](OC(=O)c3ccccc3)[C@]3(O)C[C@H](OC(=O)[C@H](OC(=O)CCC(=O)OC4O[C@H](CO)[C@@H](O)[C@H](O)[C@H]4O)[C@@H](NC(=O)c4ccccc4)c4ccccc4)C(C)=C1C3(C)C)[C@]1(OC(C)=O)CO[C@@H]1C[C@@H]2O (stereo partly shown) [SG-PTX, C2′-single glycosylated paclitaxel] | 21.23 | 17.9 ± 0.28 (≈ 16 µM) | 17.83 ± 0.09 (≈ 16 µM) | 17.9 (≈ 16 µM) | 49.8 | 1670 | 149 | 1080 | 2.77 ± 0.16 | Solubility, Pure Water ([1]; pure water, 25 °C, shaken 72 h, mean ± SD, n = 4): 19.93 ± 4.07 µg/mL (≈ 17.9 µM); solubility at 72 h ([7]; 2.5% (v/v) Cremophor EL in water): 807 µg/mL (≈ 723 µM); solubility at 72 h ([7]; 2.5% (v/v) Tween-80 in water): 468 µg/mL (≈ 419 µM); solubility at 72 h ([7]; 15% (v/v) Cremophor EL in water): 1320 µg/mL (≈ 1180 µM); solubility at 72 h ([7]; 15% (v/v) Tween-80 in water): 961 µg/mL (≈ 861 µM); solubility in formulation ([7]; PEG-400 in water, compared with Cremophor EL and Tween-80): the lowest; solubility at 72 h ([8]; aqueous solution, pH adjusted with HCl or NaOH, aqueous buffer, thermodynamic from solid, pH 9 and pH 10, water and two common injection media, 25 °C): ~27 µg/mL (≈ 24.2 µM); change of solubility with pH ([8]; pH level of 1 to 8): no significant change |
| CC(=O)O[C@H]1C(=O)[C@]2(C)[C@@H](OC(=O)CCC(=O)OC3O[C@H](CO)[C@@H](O)[C@H](O)[C@H]3O)C[C@H]3OC[C@@]3(OC(C)=O)[C@H]2[C@H](OC(=O)c2ccccc2)[C@]2(O)C[C@H](OC(=O)[C@H](OC(=O)CCC(=O)OC3O[C@H](CO)[C@@H](O)[C@H](O)[C@H]3O)[C@@H](NC(=O)c3ccccc3)c3ccccc3)C(C)=C1C2(C)C (stereo partly shown) [DG-PTX, C7 and C2′-double glycosylated paclitaxel] | 14.6 | 34.8 ± 4.22 (≈ 25.2 µM) | 36.7 ± 2.05 (≈ 26.6 µM) | 39 ± 5.66 (≈ 28.3 µM) | 97.4 | > 2000 | 395 | 1610 | 2.12 ± 0.08 | – |
